Measurements from patent US20230085307A1, “PYRIDAZINONE COMPOUND AND HERBICIDE” (NISSAN CHEMICAL CORPORATION, priority 2019, published 2023).

Legend:
late watergrass = test: Test Example 1: herbicidal activity, application before weed generation under submerged conditions (Table 16, symbol A); type: in vivo, late watergrass (Echinochloa oryzicola); conditions: 320 g/ha applied herbicide
Outline: (§1)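 Alluvial soil was flooded to 4 cm depth, weed seeds were sown mixed and 2.5-leaf rice seedlings were transplanted. On sowing day, the compound's emulsion, diluted in water to a set dose, was applied to the water surface. Plants grew at 25–30 °C and were scored 0–5 after three weeks.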

oval-leafed pondweed [1] = test: Test Example 1: herbicidal activity, application before weed generation under submerged conditions (Table 16, symbol C); type: in vivo, oval-leafed pondweed (Monochoria vaginalis); conditions: 320 g/ha applied herbicide
Outline: as §1

Japanese bulrush = test: Test Example 2: herbicidal activity, application during weed generation under submerged conditions (Table 17, symbol B); type: in vivo, Japanese bulrush (Schoenoplectus juncoides); conditions: AAH 320 g/ha; application during weed generation, submerged conditions
Outline: (§2)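 Herbicide emulsion, diluted with water to the chosen amount, is applied onto 4 cm floodwater over alluvial soil where the weeds were co-sown and raised at 25–30° C. Application timing: 1–2 leaves. Assessment: three weeks afterwards.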

oval-leafed pondweed [2] = test: Test Example 2: herbicidal activity, application during weed generation under submerged conditions (Table 17, symbol C); type: in vivo, oval-leafed pondweed (Monochoria vaginalis); conditions: AAH 320 g/ha; application during weed generation, submerged conditions
Outline: as §2

rice flat sedge = test: Test Example 3: herbicidal effect by foliage application, Wagner pot (Table 18, symbol E); type: in vivo, rice flat sedge (Cyperus iria); conditions: 320 g/ha
Outline: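 Plants were sown in alluvial soil held under 0.1–0.5 cm standing water and grown 14 days in a greenhouse at 25–30 °C. An emulsifiable formulation, water-diluted to the set dose, was then sprayed onto the foliage, and effects were scored three weeks later using previously defined criteria.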

wild oat = test: Test Example 4: herbicidal effect by soil treatment (Table 19, symbol I); type: in vivo, wild oat (Avena fatua); conditions: for herbicidal effect rating, I: wild oat: 320 g/ha
Outline: (§3)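 Herbicidal effect was rated 3 weeks after treatment, using the scoring criteria of an earlier test. The compound, formulated as an emulsion and diluted in water to a set herbicide amount, had been sprayed uniformly on soil over freshly sown seeds. Growth took place in a greenhouse at 25° C. to 30° C.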

Italian ryegrass = test: Test Example 4: herbicidal effect by soil treatment (Table 19, symbol K); type: in vivo, Italian ryegrass (Lolium multiflorum); conditions: for herbicidal effect rating, K: Italian ryegrass: 320 g/ha
Outline: as §3

windgrass = test: Test Example 4: herbicidal effect by soil treatment (Table 19, symbol L); type: in vivo, windgrass (Apera spica-venti); conditions: for herbicidal effect rating, L: windgrass: 320 g/ha
Outline: as §3

persian speedwell [3] = test: Test Example 4: herbicidal effect by soil treatment (Table 19, symbol R); type: in vivo, Persian speedwell (Veronica persica); conditions: for herbicidal effect rating, R: persian speedwell: 320 g/ha
Outline: as §3

southern crabgrass = test: Test Example 5: herbicidal effect by foliage application, plastic box (Table 20, symbol F); type: in vivo, southern crabgrass (Digitaria ciliaris); conditions: foliage application, 320 g/ha, evaluated three weeks after application
Outline: (§4)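 Foliar spray test: emulsion formulation diluted in water to a set application rate, sprayed onto 14-day-old plants raised in diluvial soil at 25° C to 30° C under glass. Both herbicidal effect and crop effect rated visually three weeks later.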

green foxtail = test: Test Example 5: herbicidal effect by foliage application, plastic box (Table 20, symbol G); type: in vivo, green foxtail (Setaria viridis); conditions: foliage application, 320 g/ha, evaluated three weeks after application
Outline: as §4

barnyard grass = test: Test Example 5: herbicidal effect by foliage application, plastic box (Table 20, symbol H); type: in vivo, barnyard grass (Echinochloa crus-galli); conditions: foliage application, 320 g/ha, evaluated three weeks after application
Outline: as §4

velvetleaf = test: Test Example 5: herbicidal effect by foliage application, plastic box (Table 20, symbol M); type: in vivo, velvetleaf (Abutilon theophrasti); conditions: foliage application, 320 g/ha, evaluated three weeks after application
Outline: as §4

redroot pigweed = test: Test Example 5: herbicidal effect by foliage application, plastic box (Table 20, symbol N); type: in vivo, redroot pigweed (Amaranthus retroflexus); conditions: foliage application, 320 g/ha, evaluated three weeks after application
Outline: as §4

chickweed = test: Test Example 5: herbicidal effect by foliage application, plastic box (Table 20, symbol P); type: in vivo, common chickweed (Stellaria media); conditions: foliage application, 320 g/ha, evaluated three weeks after application
Outline: as §4

persian speedwell [4] = test: Test Example 5: herbicidal effect by foliage application, plastic box (Table 20, symbol R); type: in vivo, Persian speedwell (Veronica persica); conditions: foliage application, 320 g/ha, evaluated three weeks after application
Outline: as §4

[5] = amount of applied herbicide 320 g/ha

For `COc1ccc(-c2sc3ccc(F)cc3c2-c2c(O)c(C)nn(C)c2=O)cc1OC` [2-088], the “Herbicidal effect on A: late watergrass (grade 0-5)” value (late watergrass) was 3 (Herbicidal rate of 40% or more and less than 70%), the “Herbicidal effect on C: oval-leafed pondweed (grade 0-5)” value (“Herbicidal effect on C” for short) (oval-leafed pondweed [1]) was 0 (Herbicidal rate of 5% or less (almost no effect)) and the “herbicidal effect rating, B: Japanese bulrush” value (“herbicidal effect rating, B” below) (Japanese bulrush) was 0 (Herbicidal rate of 5% or less (almost no effect)). The “herbicidal effect rating, C: oval-leafed pondweed” value (“herbicidal effect rating, C” below) (oval-leafed pondweed [2]) was 2 (Herbicidal rate of 20% or more and less than 40%), the “herbicidal effect on E (rice flat sedge), rating 0-5” value (“herbicidal effect on E” below) (rice flat sedge) was 5 (Herbicidal rate of 90% or more (almost completely withered)) and the “herbicidal effect rating, I: wild oat” value (wild oat) was 0 (Herbicidal rate of 5% or less (almost no effect)). For the same compound, the “herbicidal effect rating, K: Italian ryegrass” value (shortened to “herbicidal effect rating, K”) (Italian ryegrass) was 3 (Herbicidal rate of 40% or more and less than 70%), the “herbicidal effect rating, L: windgrass” value (windgrass) was 0 (Herbicidal rate of 5% or less (almost no effect)) and the “herbicidal effect rating, R: persian speedwell” value (“herbicidal effect rating, R” for short) (persian speedwell [3]) was 3 (Herbicidal rate of 40% or more and less than 70%). The “herbicidal effect on F: southern crabgrass” value (from here on “herbicidal effect on F”) (southern crabgrass) was 3 (Herbicidal rate of 40% or more and less than 70%), the “herbicidal effect on G: green foxtail” value (green foxtail) was 5 (Herbicidal rate of 90% or more (almost completely withered)) and the “herbicidal effect on H: barnyard grass” value (barnyard grass) was 3 (Herbicidal rate of 40% or more and less than 70%). The “herbicidal effect on M: velvetleaf” value (velvetleaf) was 5 (Herbicidal rate of 90% or more (almost completely withered)), the “herbicidal effect on N: redroot pigweed” value (redroot pigweed) was 5 (Herbicidal rate of 90% or more (almost completely withered)) and the “herbicidal effect on P: chickweed” value (chickweed) was 5 (Herbicidal rate of 90% or more (almost completely withered)). The “herbicidal effect on R: persian speedwell” value (from here on “herbicidal effect on R”) (persian speedwell [4]) was 5 (Herbicidal rate of 90% or more (almost completely withered)).
For `CCCC(=O)Oc1c(C)nn(C)c(=O)c1-c1c(-c2ccc(OC)c(OC)c2)sc2ccc(F)cc12` [2-089], the “Herbicidal effect on A: late watergrass (grade 0-5)” value (late watergrass) was 5 (Herbicidal rate of 90% or more (almost completely withered)), the “Herbicidal effect on C” value (oval-leafed pondweed [1]) was 4 (Herbicidal rate of 70% or more and less than 90%) and the “herbicidal effect rating, B” value (Japanese bulrush) was 3 (Herbicidal rate of 40% or more and less than 70%). For the same compound, the “herbicidal effect rating, C” value (oval-leafed pondweed [2]) was 4 (Herbicidal rate of 70% or more and less than 90%), the “herbicidal effect on E” value (rice flat sedge) was 5 (Herbicidal rate of 90% or more (almost completely withered)) and the “herbicidal effect rating, I: wild oat” value (wild oat) was 0 (Herbicidal rate of 5% or less (almost no effect)). For the same compound, the “herbicidal effect rating, K” value (Italian ryegrass) was 4 (Herbicidal rate of 70% or more and less than 90%), the “herbicidal effect rating, L: windgrass” value (windgrass) was 0 (Herbicidal rate of 5% or less (almost no effect)) and the “herbicidal effect rating, R” value (persian speedwell [3]) was 5 (Herbicidal rate of 90% or more (almost completely withered)). The “herbicidal effect on F” value (southern crabgrass) was 3 (Herbicidal rate of 40% or more and less than 70%), the “herbicidal effect on G: green foxtail” value (green foxtail) was 5 (Herbicidal rate of 90% or more (almost completely withered)) and the “herbicidal effect on H: barnyard grass” value (barnyard grass) was 4 (Herbicidal rate of 70% or more and less than 90%). For the same compound, the “herbicidal effect on M: velvetleaf” value (velvetleaf) was 5 (Herbicidal rate of 90% or more (almost completely withered)), the “herbicidal effect on N: redroot pigweed” value (redroot pigweed) was 4 (Herbicidal rate of 70% or more and less than 90%) and the “herbicidal effect on P: chickweed” value (chickweed) was 5 (Herbicidal rate of 90% or more (almost completely withered)). The “herbicidal effect on R” value (persian speedwell [4]) was 5 (Herbicidal rate of 90% or more (almost completely withered)).
`CCCC(=O)Oc1c(C)nn(C)c(=O)c1-c1c(-c2ccc3c(c2)OCO3)sc2ccc(F)cc12` [2-091] was tested, and the “Herbicidal effect on A: late watergrass (grade 0-5)” value (late watergrass) was 3 (Herbicidal rate of 40% or more and less than 70%), the “Herbicidal effect on C” value (oval-leafed pondweed [1]) was 5 (Herbicidal rate of 90% or more (almost completely withered)) and the “herbicidal effect rating, B” value (Japanese bulrush) was 3 (Herbicidal rate of 40% or more and less than 70%). For the same compound, the “herbicidal effect rating, C” value (oval-leafed pondweed [2]) was 4 (Herbicidal rate of 70% or more and less than 90%), the “herbicidal effect on E” value (rice flat sedge) was 5 (Herbicidal rate of 90% or more (almost completely withered)) and the “herbicidal effect rating, I: wild oat” value (wild oat) was 0 (Herbicidal rate of 5% or less (almost no effect)). The “herbicidal effect rating, K” value (Italian ryegrass) was 3 (Herbicidal rate of 40% or more and less than 70%), the “herbicidal effect rating, L: windgrass” value (windgrass) was 0 (Herbicidal rate of 5% or less (almost no effect)) and the “herbicidal effect rating, R” value (persian speedwell [3]) was 4 (Herbicidal rate of 70% or more and less than 90%). The “herbicidal effect on F” value (southern crabgrass) was 2 (Herbicidal rate of 20% or more and less than 40%), the “herbicidal effect on G: green foxtail” value (green foxtail) was 1 (Herbicidal rate of 5% or more and less than 20%) and the “herbicidal effect on H: barnyard grass” value (barnyard grass) was 3 (Herbicidal rate of 40% or more and less than 70%). The “herbicidal effect on M: velvetleaf” value (velvetleaf) was 5 (Herbicidal rate of 90% or more (almost completely withered)), the “herbicidal effect on N: redroot pigweed” value (redroot pigweed) was 3 (Herbicidal rate of 40% or more and less than 70%) and the “herbicidal effect on P: chickweed” value (chickweed) was 5 (Herbicidal rate of 90% or more (almost completely withered)). For the same compound, the “herbicidal effect on R” value (persian speedwell [4]) was 5 (Herbicidal rate of 90% or more (almost completely withered)).
With `CCCC(=O)Oc1c(C)nn(C)c(=O)c1-c1c(-c2ccc(Cl)cc2)sc2ccc(Cl)cc12` [2-100] the “Herbicidal effect on A: late watergrass (grade 0-5)” value (late watergrass) was 3 (Herbicidal rate of 40% or more and less than 70%), the “Herbicidal effect on C” value (oval-leafed pondweed [1]) was 2 (Herbicidal rate of 20% or more and less than 40%) and the “herbicidal effect rating, B” value (Japanese bulrush) was 0 (Herbicidal rate of 5% or less (almost no effect)). For the same compound, the “herbicidal effect rating, C” value (oval-leafed pondweed [2]) was 0 (Herbicidal rate of 5% or less (almost no effect)), the “herbicidal effect on E” value (rice flat sedge) was 3 (Herbicidal rate of 40% or more and less than 70%) and the “I: wild oat, herbicidal effect rating” value (wild oat; [5]) was 0 (Herbicidal rate of 5% or less (almost no effect)). The “K: Italian ryegrass, herbicidal effect rating” value (Italian ryegrass; [5]) was 3 (Herbicidal rate of 40% or more and less than 70%), the “L: windgrass, herbicidal effect rating” value (windgrass; [5]) was 3 (Herbicidal rate of 40% or more and less than 70%) and the “R: persian speedwell, herbicidal effect rating” value (persian speedwell [3]; [5]) was 1 (Herbicidal rate of 5% or more and less than 20%). For the same compound, the “herbicidal effect on F” value (southern crabgrass) was 4 (Herbicidal rate of 70% or more and less than 90%), the “herbicidal effect on G: green foxtail” value (green foxtail) was 4 (Herbicidal rate of 70% or more and less than 90%) and the “herbicidal effect on H: barnyard grass” value (barnyard grass) was 5 (Herbicidal rate of 90% or more (almost completely withered)). The “herbicidal effect on M: velvetleaf” value (velvetleaf) was 5 (Herbicidal rate of 90% or more (almost completely withered)), the “herbicidal effect on N: redroot pigweed” value (redroot pigweed) was 5 (Herbicidal rate of 90% or more (almost completely withered)) and the “herbicidal effect on P: chickweed” value (chickweed) was 5 (Herbicidal rate of 90% or more (almost completely withered)). For the same compound, the “herbicidal effect on R” value (persian speedwell [4]) was 5 (Herbicidal rate of 90% or more (almost completely withered)).
